Reference: patent publication US10086030B2, “Use of composition in preparing health care products or medicines for preventing and treating allergic diseases” (JIANGZHONG PHARMACEUTICAL CO., LTD., priority 2012, dated 2018)
Several values for one entry are separate records, joined by “and”; a condition that tells them apart may be missing. Equal entries are not always repeated.

What was measured:
[1] = tested on: allergic asthma in rats caused by OVA; assay: Allergic asthma in rats caused by OVA: latent period of asthma, serum IL-4 and IFN-γ, EOS content in lung tissues; assay type: in vivo, SD rats
Excerpt: Rats (half thereof were male and the other half female) were randomly divided into two groups, i.e., a blank control group of 10 animals and a modeling group of 70 animals. After a successful modeling, the rats were randomly divided into the following groups: a model control group, a positive drug group (dexamethasone group), and groups on the low, medium, and high doses of Composition 3, with 10 animals in each group.
On day 1, all animals except those in the blank control group were sensitized by intraperitoneal injection with 1 ml suspension containing 10 mg OVA, 200 mg Al(OH)3 dry powder, and 6×10^9 inactivated pertussis vaccines in physiological saline, and were sensitized once again on day 8.
The daily intake of the test drug Composition 3 composite powder recommended for one person was 24 g crude drug/60 kg body weight. On the basis thereof, the calculated daily intake for a rat was: low dose group: 1.0 g crude drug/kg body weight; medium dose group: 2.0 g crude drug/kg body weight; high dose group: 6.0 g crude drug/kg body weight, which were 2.5, 5 and 15 times the daily intake for a human, respectively. […] The volume of intragastric administration was calculated as 1.0 ml/100 g body weight. The model control group was intragastrically given an equivalent volume of 0.9% physiological saline 30 minutes before challenging; and the positive drug group was given dexamethasone at a dose of 0.5 mg/kg 30 min before each challenging^[2]. The groups on the low, medium and high doses of Composition 3 were each intragastrically given the respective dose of the test drug 30 min before each challenging. […]
A ZH-100 respiratory transducer was tied around the thoracic cage of each rat (the tension was adjusted to about 1 to 2 g so that the amplitude of the respiratory wave was 1 to 2 my). […] The acquisition system was turned on and a segment of normal respiratory wave was recorded. Then ultrasonic atomization with 1% OVA was applied for 20 min, and the respiratory waves of induced asthma in the rats were continuously recorded over 30 min after the atomization was initiated. Meanwhile, the period from the beginning of atomization to occurrence of symptoms (indicated by the first twitch) was visually observed and recorded as the latent period of asthma.
24 h after the final challenge, the rats were anaesthetized by intraperitoneal injection with 3% sodium pentobarbital (30 mg/kg). 5 to 10 ml blood was drawn, and serum IL-4 and IFN-γ levels were measured by ELISA.
The left lung tissues were cut off and fixed in 4% polyformaldehyde for 4 to 5 h, then washed with water, dehydrated with an alcohol gradient, and immersed and embedded in paraffine. HE staining was performed with a successive sectioning process, inflammatory changes in the tissues were observed, and EOS infiltration was counted. For each section, 10 fields were randomly chosen under a microscope at high magnification (×400) by the same observer, and the numbers of EOS infiltration around bronchus and vessels were calculated and averaged as the representative value for this section.
The daily intake of the test drug Composition 4 composite powder recommended for one person was 24 g crude drug/60 kg body weight. On the basis thereof, the calculated daily intake for a rat was: low dose group: 1.0 g crude drug/kg body weight; medium dose group: 2.0 g crude drug/kg body weight; high dose group: 6.0 g crude drug/kg body weight, which were 2.5, 5 and 15 times the daily intake for a human, respectively.

[2] = tested on: allergic asthma in guinea pigs caused by a mixed gas of Ach and His; assay: Allergic asthma in guinea pigs caused by a mixed gas of Ach and His: latent period, total IgE in serum and BALF, EOS content in lung tissues; assay type: in vivo; conditions: for latent period of asthma, Before dosing: before dosing (baseline)
Description: 2.2 Effect on Allergic Asthma in Guinea Pigs Caused by a Mixed Gas of Ach and his
On day 1, guinea pigs were placed in a closed 4 L glass bell jar, into which a 1:1 mixture solution of 2% Ach and 0.4% His was sprayed by ultrasonic atomization for 15 s. After completion of spraying, the latent period of asthma induced in the guinea pigs was recorded (i.e., the period from the end of the spraying to asthmatic onsets, extreme difficulty in breathing till twitching and falling down). Animals having a latent period of asthma longer than 120 s were excluded.
Dual-antibody sandwich radioimmunoassay was employed.

[3] = tested on: allergic asthma in rats caused by OVA; assay: Allergic asthma in rats caused by OVA: latent period of asthma, serum IL-4 and IFN-γ, EOS content in lung tissues; assay type: in vivo, SD rats; conditions: dexamethasone 0.5 mg/kg; for latent period of asthma, Before dosing: before dosing (baseline)
[4] = baseline, positive control group (dexamethasone 0.5 mg/kg)
[5] = positive control dexamethasone 0.5 mg/kg, 21 days
[6] = dexamethasone 0.5 mg/kg, Composition 6 study
[7] = dexamethasone 0.5 mg/kg, Composition 7 study
[8] = dexamethasone 0.5 mg/kg, Composition 5 study

C[C@@H]1C[C@H]2[C@@H]3CCC4=CC(=O)C=C[C@]4(C)[C@@]3(F)[C@@H](O)C[C@]2(C)[C@@]1(O)C(=O)CO [dexamethasone]
latent period of asthma induced, Before dosing [1, 4]: 75.84 ± 12.36 and 74.66 ± 11.09 and 74.64 ± 11.03
latent period of asthma induced, After dosing ([1]; positive control dexamethasone 0.5 mg/kg 30 min before each challenge, 21 days): 162.61 ± 17.88^ΔΔ and 159.77 ± 20.28^ΔΔ and 160.21 ± 20.32^ΔΔ
EOS content in lung tissues [1, 5]: 27.51 ± 4.31^ΔΔ cells/HP and 28.39 ± 4.26^ΔΔ cells/HP and 28.42 ± 4.24^ΔΔ cells/HP
serum IFN-γ [1, 5]: 20.51 ± 4.65^ΔΔ pg/ml and 20.26 ± 4.86^ΔΔ pg/ml and 20.27 ± 4.88^ΔΔ pg/ml
serum IL-4 [1, 5]: 12.88 ± 4.13^ΔΔ pg/ml and 13.51 ± 4.31^ΔΔ pg/ml and 13.50 ± 4.28^ΔΔ pg/ml
total IgE in BALF ([2]; BALF, positive control group, 0.5 mg/kg): 3.62 ± 0.62^ΔΔ U/L
latent period of asthma, After dosing ([2]; after dosing, dexamethasone 0.5 mg/kg, Composition 6 study): 155.78 ± 16.29^ΔΔ
latent period of asthma, After dosing ([2]; after dosing, dexamethasone 0.5 mg/kg, Composition 7 study): 150.46 ± 16.80^ΔΔ
latent period of asthma induced in guinea pigs, after dosing ([2]; after dosing, positive control group, 0.5 mg/kg): 156.77 ± 16.18^ΔΔ
latent period of asthma induced, Before dosing [2, 4]: 77.32 ± 13.95 and 75.63 ± 9.09 and 75.65 ± 9.10
latent period of asthma induced in guinea pigs, before dosing ([2]; before dosing (after modeling), positive control group, 0.5 mg/kg): 74.63 ± 9.04
latent period of asthma, Before dosing [2, 6]: 75.62 ± 9.10
latent period of asthma, Before dosing [2, 7]: 70.68 ± 9.65
EOS content in lung tissues [2, 8]: 30.77 ± 7.21^ΔΔ cells/HP
total IgE in BALF [2, 8]: 3.70 ± 0.73^ΔΔ U/L
total IgE in serum [2, 8]: 3.74 ± 1.32^ΔΔ U/L
EOS content in lung tissues [2, 6]: 30.80 ± 7.23^ΔΔ cells/HP
total IgE in BALF [2, 6]: 3.71 ± 0.70^ΔΔ U/L
total IgE in serum [2, 6]: 3.74 ± 1.30^ΔΔ U/L
EOS content in lung tissues [2, 7]: 31.70 ± 9.52^ΔΔ cells/HP
total IgE in BALF [2, 7]: 3.50 ± 0.78^ΔΔ U/L
total IgE in serum [2, 7]: 3.70 ± 1.26^ΔΔ U/L
EOS content in guinea pigs' lung tissues ([2]; lung tissues, positive control group, 0.5 mg/kg): 30.69 ± 7.35^ΔΔ cells/HP
EOS content in lung tissues [2, 5]: 31.78 ± 7.55^ΔΔ cells/HP and 30.79 ± 7.25^ΔΔ cells/HP
latent period of asthma induced, After dosing [2, 5]: 160.92 ± 19.72^ΔΔ and 155.77 ± 16.28^ΔΔ and 155.78 ± 16.24^ΔΔ
total IgE in BALF [2, 5]: 3.49 ± 0.82^ΔΔ U/L and 3.72 ± 0.72^ΔΔ U/L
total IgE in serum [2, 5]: 3.58 ± 1.19^ΔΔ U/L and 3.75 ± 1.31^ΔΔ U/L
total IgE in serum ([2]; serum, positive control group, 0.5 mg/kg): 3.65 ± 1.21^ΔΔ U/L
latent period of asthma, After dosing ([3]; Composition 6 study): 159.78 ± 20.27^ΔΔ
latent period of asthma, After dosing ([3]; Composition 7 study): 156.30 ± 21.44^ΔΔ
latent period of asthma, After dosing ([3]; Composition 8 study): 159.87 ± 20.38^ΔΔ
latent period of asthma, Before dosing ([3]; Composition 6 study): 74.67 ± 11.10
latent period of asthma, Before dosing ([3]; Composition 7 study): 72.88 ± 10.96
latent period of asthma, Before dosing ([3]; Composition 8 study): 73.66 ± 11.19
EOS content in lung tissues ([3]; Composition 6 study): 28.40 ± 4.25^ΔΔ cells/HP
IFN-γ (serum) ([3]; Composition 6 study): 20.27 ± 4.89^ΔΔ pg/ml
IL-4 (serum) ([3]; Composition 6 study): 13.50 ± 4.32^ΔΔ pg/ml
EOS content in lung tissues ([3]; Composition 7 study): 35.64 ± 6.18^ΔΔ cells/HP
IFN-γ (serum) ([3]; Composition 7 study): 19.29 ± 4.04^ΔΔ pg/ml
IL-4 (serum) ([3]; Composition 7 study): 12.90 ± 4.67^ΔΔ pg/ml
EOS content in lung tissues ([3]; Composition 8 study): 28.39 ± 4.26^ΔΔ cells/HP
IFN-γ (serum) ([3]; Composition 8 study): 20.16 ± 4.96^ΔΔ pg/ml
IL-4 (serum) ([3]; Composition 8 study): 13.41 ± 4.21^ΔΔ pg/ml
